Measured values: US8969554B2, “6-acyl-1,2,4-triazine-3,5-dione derivative and herbicides” (Kumiai Chemical Industry Co., Ltd., priority 2010, dated 2015)

Key:
[1] = test system: Echinochloa oryzicola; test: Herbicidal activity by paddy field soil treatment (Test Example 1); assay type: in vivo; set-up: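 index 0 to 10 in 10% steps of herbicidal effect with 10 meaning complete death and 0 below 10%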; conditions: 1000 g of effective component per hectare, evaluated on day 21 after the treatment, criteria of Table 72
Method in brief: (§1)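 Using sown, 3 cm-flooded paddy soil pots, we apply diluted wettable powder to the water on day 1 post-sowing (1000 g active/ha), keep plants in a greenhouse, and grade herbicidal effects 21 days post-treatment.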

[2] = test system: Monochoria vaginalis; test: as above; assay type: in vivo; set-up: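 index 0 to 10 in 10% steps of herbicidal effect with 10 meaning complete death and 0 below 10%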; conditions: 1000 g of effective component per hectare, evaluated on day 21 after the treatment, criteria of Table 72
Method in brief: as §1

[3] = test system: Scirpus juncoides Rocxb.; test: as above; assay type: in vivo; set-up: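 index 0 to 10 in 10% steps of herbicidal effect with 10 meaning complete death and 0 below 10%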; conditions: applied on water surface, 1000 g of effective component per hectare, day 21 after the treatment
Method in brief: as §1

[4] = test system: A. retroflexus; test: Herbicidal activity by field soil treatment (Test example 2); assay type: in vivo; set-up: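 index 0 to 10 in 10% steps of herbicidal effect with 10 meaning complete death and 0 below 10%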; conditions: 1000 g effective component per hectare, day 21 after the treatment
Method in brief: (§2)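 Pre-covered sown seed in field-soil pots (80 cm^2) got a soil-surface application of 1000 g/ha active ingredient, sprayed as a diluted wettable powder at 1000 L/ha water volume. Greenhouse-grown; herbicidal activity graded by criteria at 21 days post-application.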

[5] = test system: Echinochloa crus-galli; test: as above; assay type: in vivo; set-up: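 index 0 to 10 in 10% steps of herbicidal effect with 10 meaning complete death and 0 below 10%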; conditions: 1000 g effective component per hectare, day 21 after the treatment
Method in brief: as §2

[6] = test system: Indian millet; test: as above; assay type: in vivo; set-up: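 index 0 to 10 in 10% steps of herbicidal effect with 10 meaning complete death and 0 below 10%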; conditions: 1000 g effective component per hectare, day 21 after the treatment
Method in brief: as §2

[7] = test system: foxtail; test: as above; assay type: in vivo; conditions: 1000 g effective component per hectare, day 21 after the treatment;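 note: index 0 to 10 in 10% steps of herbicidal effect with 10 meaning complete death and 0 below 10%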
Method in brief: as §2

[8] = test system: A. retroflexus; test: Herbicidal activity by field foliage treatment (Test example 3); assay type: in vivo; set-up: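 index 0 to 10 in 10% steps of herbicidal effect with 10 meaning complete death and 0 below 10%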; conditions: 1000 g effective component per hectare, day 14 after the treatment
Method in brief: (§3)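 Greenhouse foliar treatment at 1000 g a.i./ha of 2-week-old plants; herbicidal score at day 14.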

[9] = test system: Indian millet; test: as above; assay type: in vivo; set-up: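 index 0 to 10 in 10% steps of herbicidal effect with 10 meaning complete death and 0 below 10%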; conditions: 1000 g effective component per hectare, day 14 after the treatment
Method in brief: as §3

[10] = test system: Echinochloa crus-galli; test: as above; assay type: in vivo; set-up: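 index 0 to 10 in 10% steps of herbicidal effect with 10 meaning complete death and 0 below 10%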; conditions: 1000 g effective component per hectare, day 14 after the treatment
Method in brief: (§4)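 Herbicidal effect was rated on day 14 following a foliar spray of 1000 g active ingredient per hectare, applied as water-diluted wettable powder at 1000 L/ha. Plants had been raised for 2 weeks in field soil under greenhouse conditions before spraying.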

[11] = test system: Setaria viridis; test: as above; assay type: in vivo; conditions: 1000 g effective component per hectare, day 14 after the treatment;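 note: index 0 to 10 in 10% steps of herbicidal effect with 10 meaning complete death and 0 below 10%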
Method in brief: as §4

| Compound | Herbicidal effects index number, Echinochloa oryzicola [1] | Herbicidal effects index number, Monochoria vaginalis [2] | herbicidal effect index, S. juncoides Rocxb. [3] | herbicidal effect index, Amaranthus retroflexus [4] | herbicidal effect index, Echinochloa crus-galli [5] | herbicidal effect index, Abutilon theophrasti [6] | herbicidal effect index, Setaria viridis [7] | herbicidal effect index, Amaranthus retroflexus [8] | herbicidal effect index, Abutilon theophrasti [9] | herbicidal effect index, Echinochloa crus-galli [10] | herbicidal effect index, Setaria viridis [11] | melting point [°C] |
| --- | --- | --- | --- | --- | --- | --- | --- | --- | --- | --- | --- | --- |
| Cc1cc(Br)ccc1-n1c(=O)c(C(=O)C2=C(O)CCCC2=O)nn(C)c1=O [I-282] | 10 | 10 | 10 | 10 | 10 | 9 | 10 | 8 | 9 | 8 | 7 |  |
| Cc1ccc(C(F)(F)F)cc1-n1c(=O)c(C(=O)C2=C(O)CCCC2=O)nn(C)c1=O [I-284] | 10 | 10 | 10 | 10 | 10 | 9 | 8 | 9 | 8 | 9 | 7 |  |
| Cc1cccc(OC(F)(F)F)c1-n1c(=O)c(C(=O)C2=C(O)CCCC2=O)nn(C)c1=O [I-285] | 10 | 10 | 10 | 10 | 10 | 10 | 10 | 8 | 7 | 9 | 9 |  |
| CC(C)c1ccccc1-n1c(=O)c(C(=O)C2=C(O)CCCC2=O)nn(C)c1=O [I-286] | 10 | 10 | 9 | 10 | 10 | 9 | 9 | 10 | 9 | 10 | 10 |  |
| CCc1ccccc1-n1c(=O)c(C(=O)C2=C(O)CCCC2=O)nn(C)c1=O [I-288] | 10 | 10 | 10 | 10 | 10 | 9 | 9 | 10 | 10 | 9 | 10 |  |
| Cc1ccc(-n2c(=O)c(C(=O)C3=C(O)CCCC3=O)nn(C)c2=O)cn1 [I-289] | 10 | 10 | 10 | 10 | 9 | 9 | 7 | 10 | 9 | 9 | 7 |  |
| COc1cc(-n2c(=O)c(C(=O)C3=C(O)CCCC3=O)nn(C)c2=O)c(F)cc1Cl [I-297] | 10 | 10 | 10 | 10 | 10 | 9 | 9 | 8 | 8 | 9 | 9 |  |
| COc1ccc(-n2c(=O)c(C(=O)C3=C(O)CCCC3=O)nn(C)c2=O)c(OC)c1OC [I-298] | 10 | 10 | 10 | 10 | 7 | 10 | 7 | 10 | 9 | 10 | 8 |  |
| Cn1nc(C(=O)C2=C(O)CCCC2=O)c(=O)n(C2C=CCCC2)c1=O (stereo not drawn) [I-303] | 10 | 10 | 10 | 10 | 9 | 9 | 9 | 10 | 9 | 8 | 10 |  |
| Cn1nc(C(=O)C2=C(O)CCCC2=O)c(=O)n(N2CCCCC2)c1=O [I-304] | 10 | 10 | 10 | 10 | 10 | 10 | 9 | 10 | 9 | 10 | 10 |  |
| Cn1nc(C(=O)O)c(=O)n(-c2ccccc2)c1=O [V-50, 2-methyl-3,5-dioxo-4-phenyl-2,3,4,5-tetrahydro-1,2,4-triazine-6-carboxylic acid] |  |  |  |  |  |  |  |  |  |  |  | 195 to 198 |
| Cn1nc(C(=O)O)c(=O)n(-c2ccccc2C#N)c1=O [V-72, 2-methyl-3,5-dioxo-4-(2-cyanophenyl)-2,3,4,5-tetrahydro-1,2,4-triazine-6-carboxylic acid] |  |  |  |  |  |  |  |  |  |  |  | 213 to 215 |
| CC1CC(C)(C)C(=O)C(C(=O)c2nn(C)c(=O)n(-c3ccccc3)c2=O)=C1O (stereo not drawn) [VI-7] | 10 | 10 | 10 | 10 | 10 | 10 | 10 | 10 | 10 | 10 | 10 |  |
